Data taken from patent US12404250B2, “PARP inhibitors for treating cancer and asthma” (Oregon Health & Science University, priority 2018, dated 2025).

Columns and labels:
[1] = molecular target: T1, PARP 3 (Homo sapiens, UniProt Q9Y6F1); test: In vitro IC50, PARP3; type: biochemical; settings: SEM from a minimum of three dose-response experiments
T1 sequence (Q9Y6F1 1-533): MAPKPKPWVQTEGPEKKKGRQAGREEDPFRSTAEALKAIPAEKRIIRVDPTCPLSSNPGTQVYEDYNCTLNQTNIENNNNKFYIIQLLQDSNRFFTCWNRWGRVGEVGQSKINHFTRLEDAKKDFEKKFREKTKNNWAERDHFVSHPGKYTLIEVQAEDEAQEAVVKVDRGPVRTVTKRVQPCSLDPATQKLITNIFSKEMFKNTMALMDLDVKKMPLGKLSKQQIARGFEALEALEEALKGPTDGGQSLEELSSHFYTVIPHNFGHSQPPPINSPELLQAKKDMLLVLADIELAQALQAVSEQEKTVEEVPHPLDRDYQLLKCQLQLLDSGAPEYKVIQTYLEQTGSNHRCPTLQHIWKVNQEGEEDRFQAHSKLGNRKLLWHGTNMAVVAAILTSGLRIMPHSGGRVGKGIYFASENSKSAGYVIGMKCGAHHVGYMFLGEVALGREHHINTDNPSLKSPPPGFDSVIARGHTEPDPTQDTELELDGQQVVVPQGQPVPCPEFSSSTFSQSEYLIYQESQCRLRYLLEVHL

[2] = molecular target: T2, PARP10cat (Homo sapiens, UniProt Q53GL7); test: In vitro IC50, PARP10cat; type: biochemical; settings: SEM from a minimum of three dose-response experiments
T2 construct: bcat; cat; PARP11
T2 sequence (Q53GL7 806-1025 limits assumed): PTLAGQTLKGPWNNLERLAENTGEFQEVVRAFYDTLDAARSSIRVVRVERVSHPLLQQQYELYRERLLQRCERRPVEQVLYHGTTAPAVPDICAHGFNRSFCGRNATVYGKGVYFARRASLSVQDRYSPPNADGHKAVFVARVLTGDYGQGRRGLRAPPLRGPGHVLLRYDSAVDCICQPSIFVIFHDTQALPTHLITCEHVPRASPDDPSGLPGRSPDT

[3] = molecular target: T3, PARP5 bcat (Homo sapiens, UniProt Q9H2K2); test: In vitro IC50, PARP5bcat; type: biochemical; settings: SEM from a minimum of three dose-response experiments
T3 construct: bcat
T3 sequence (Q9H2K2 959-1164): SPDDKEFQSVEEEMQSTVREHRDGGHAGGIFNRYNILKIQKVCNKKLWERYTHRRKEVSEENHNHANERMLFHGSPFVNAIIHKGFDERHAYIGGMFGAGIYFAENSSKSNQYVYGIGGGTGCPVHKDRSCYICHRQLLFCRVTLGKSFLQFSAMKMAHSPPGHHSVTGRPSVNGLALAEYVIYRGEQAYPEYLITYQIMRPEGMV

[4] = molecular target: T4, PARP14 cat-wwe (Homo sapiens, UniProt Q460N5); test: In vitro IC50, PARP14 cat-wwe; type: biochemical; settings: SEM from a minimum of three dose-response experiments
T4 construct: PARP14 cat-wwe; no borders given for the assay protein
T4 sequence (Q460N5 1523-1801 limits assumed): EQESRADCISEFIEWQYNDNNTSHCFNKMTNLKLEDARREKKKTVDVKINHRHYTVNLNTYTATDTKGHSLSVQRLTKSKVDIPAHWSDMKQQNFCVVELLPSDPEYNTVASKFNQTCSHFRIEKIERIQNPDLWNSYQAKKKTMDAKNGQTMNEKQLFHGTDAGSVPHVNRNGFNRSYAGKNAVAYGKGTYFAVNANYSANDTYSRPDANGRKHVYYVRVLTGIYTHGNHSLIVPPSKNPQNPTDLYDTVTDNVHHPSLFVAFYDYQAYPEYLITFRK

[5] = molecular target: T5, PARP11 (Homo sapiens, UniProt Q9NR21); test: In vitro IC50, PARP11 (plate assay, MARylation of SRPK2 and NXF1); type: biochemical; settings: SEM from a minimum of three dose-response experiments
T5 sequence (Q9NR21 1-338): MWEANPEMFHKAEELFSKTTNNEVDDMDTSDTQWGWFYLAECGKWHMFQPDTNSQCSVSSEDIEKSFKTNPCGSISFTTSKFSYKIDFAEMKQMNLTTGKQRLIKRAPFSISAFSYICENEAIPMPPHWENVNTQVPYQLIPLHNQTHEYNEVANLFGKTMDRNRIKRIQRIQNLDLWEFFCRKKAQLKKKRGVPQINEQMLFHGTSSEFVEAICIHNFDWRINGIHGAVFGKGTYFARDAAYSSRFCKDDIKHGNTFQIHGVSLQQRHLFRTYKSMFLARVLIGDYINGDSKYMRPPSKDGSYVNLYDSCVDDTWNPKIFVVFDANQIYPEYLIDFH
Excerpt: Curves generated using Prism 7 (Graph Pad); error bars indicate ±SEM from at least two replicates.

[6] = molecular target: PARP 2 (Homo sapiens, UniProt Q9UGN5); test: In vitro IC50, PARP2; type: biochemical; settings: SEM from a minimum of three dose-response experiments
Sequence of PARP 2 (Q9UGN5 whole entry): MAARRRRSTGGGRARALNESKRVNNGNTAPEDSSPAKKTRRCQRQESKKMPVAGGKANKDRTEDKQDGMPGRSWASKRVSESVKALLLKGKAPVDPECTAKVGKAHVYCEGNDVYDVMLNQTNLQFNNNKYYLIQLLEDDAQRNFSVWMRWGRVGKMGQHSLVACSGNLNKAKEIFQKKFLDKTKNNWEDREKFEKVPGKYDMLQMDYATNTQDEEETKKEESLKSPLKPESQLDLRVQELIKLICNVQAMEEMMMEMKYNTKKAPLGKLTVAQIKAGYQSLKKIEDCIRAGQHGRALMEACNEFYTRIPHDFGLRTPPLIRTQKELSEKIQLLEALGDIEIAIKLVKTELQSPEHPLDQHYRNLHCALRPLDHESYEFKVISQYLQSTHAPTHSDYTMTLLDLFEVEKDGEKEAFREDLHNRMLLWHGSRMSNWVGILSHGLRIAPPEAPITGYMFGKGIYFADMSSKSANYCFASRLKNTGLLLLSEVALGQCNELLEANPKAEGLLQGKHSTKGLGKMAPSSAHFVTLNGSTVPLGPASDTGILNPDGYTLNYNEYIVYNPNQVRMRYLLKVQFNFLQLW

[7] = molecular target: T6, PARP15 cat (Homo sapiens, UniProt Q460N3); test: In vitro IC50, PARP15 cat; type: biochemical; settings: SEM from a minimum of three dose-response experiments
T6 construct: cat-wwe; cat
T6 sequence (Q460N3 482-678 limits assumed): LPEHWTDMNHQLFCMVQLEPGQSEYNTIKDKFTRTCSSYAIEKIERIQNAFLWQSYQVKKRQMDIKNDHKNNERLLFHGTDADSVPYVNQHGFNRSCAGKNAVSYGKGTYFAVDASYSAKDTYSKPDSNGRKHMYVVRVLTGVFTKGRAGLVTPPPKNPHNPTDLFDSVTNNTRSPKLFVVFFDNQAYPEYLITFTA

[8] = molecular target: PARP 1 (Homo sapiens, UniProt P09874); test: In vitro IC50, PARP1; type: biochemical; settings: SEM from a minimum of three dose-response experiments
Sequence of PARP 1 (P09874 whole entry): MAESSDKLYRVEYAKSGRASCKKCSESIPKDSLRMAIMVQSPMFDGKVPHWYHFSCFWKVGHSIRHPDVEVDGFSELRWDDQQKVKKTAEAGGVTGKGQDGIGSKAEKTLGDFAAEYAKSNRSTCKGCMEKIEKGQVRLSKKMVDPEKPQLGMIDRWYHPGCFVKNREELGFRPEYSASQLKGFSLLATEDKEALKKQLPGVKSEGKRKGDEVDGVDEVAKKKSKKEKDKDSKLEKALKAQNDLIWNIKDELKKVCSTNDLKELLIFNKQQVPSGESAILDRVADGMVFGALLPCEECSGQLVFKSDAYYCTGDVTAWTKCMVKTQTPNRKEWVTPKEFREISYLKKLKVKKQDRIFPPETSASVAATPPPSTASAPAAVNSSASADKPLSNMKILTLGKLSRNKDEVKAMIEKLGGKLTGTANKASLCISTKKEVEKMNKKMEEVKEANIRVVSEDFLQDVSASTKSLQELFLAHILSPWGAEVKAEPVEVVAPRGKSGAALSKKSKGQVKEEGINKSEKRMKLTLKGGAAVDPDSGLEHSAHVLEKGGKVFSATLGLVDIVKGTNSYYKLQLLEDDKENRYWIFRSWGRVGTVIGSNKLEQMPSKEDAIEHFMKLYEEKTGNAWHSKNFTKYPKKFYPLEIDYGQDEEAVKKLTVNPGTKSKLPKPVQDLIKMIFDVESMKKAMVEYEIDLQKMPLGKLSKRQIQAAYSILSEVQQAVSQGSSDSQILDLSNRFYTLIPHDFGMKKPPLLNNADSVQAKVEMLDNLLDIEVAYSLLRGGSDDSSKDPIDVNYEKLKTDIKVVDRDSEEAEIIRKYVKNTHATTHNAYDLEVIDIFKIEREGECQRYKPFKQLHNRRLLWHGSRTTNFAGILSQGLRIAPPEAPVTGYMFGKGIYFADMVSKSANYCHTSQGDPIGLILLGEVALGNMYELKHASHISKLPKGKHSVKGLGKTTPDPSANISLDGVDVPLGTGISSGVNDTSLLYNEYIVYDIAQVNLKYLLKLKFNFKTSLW

[9] = molecular target: T7, PARP1/2 (Homo sapiens, UniProt P09874); test: H2O2-stimulated PARP1/2 activity in HEK 293T cells (Western blot); type: cell-based; settings: H2O2 500 μM for 15 min, Western blot with ADPr binding reagent
T7 construct: expressed in transfected cells; host or cells: HEK 293T
T7 sequence (P09874 2-1014): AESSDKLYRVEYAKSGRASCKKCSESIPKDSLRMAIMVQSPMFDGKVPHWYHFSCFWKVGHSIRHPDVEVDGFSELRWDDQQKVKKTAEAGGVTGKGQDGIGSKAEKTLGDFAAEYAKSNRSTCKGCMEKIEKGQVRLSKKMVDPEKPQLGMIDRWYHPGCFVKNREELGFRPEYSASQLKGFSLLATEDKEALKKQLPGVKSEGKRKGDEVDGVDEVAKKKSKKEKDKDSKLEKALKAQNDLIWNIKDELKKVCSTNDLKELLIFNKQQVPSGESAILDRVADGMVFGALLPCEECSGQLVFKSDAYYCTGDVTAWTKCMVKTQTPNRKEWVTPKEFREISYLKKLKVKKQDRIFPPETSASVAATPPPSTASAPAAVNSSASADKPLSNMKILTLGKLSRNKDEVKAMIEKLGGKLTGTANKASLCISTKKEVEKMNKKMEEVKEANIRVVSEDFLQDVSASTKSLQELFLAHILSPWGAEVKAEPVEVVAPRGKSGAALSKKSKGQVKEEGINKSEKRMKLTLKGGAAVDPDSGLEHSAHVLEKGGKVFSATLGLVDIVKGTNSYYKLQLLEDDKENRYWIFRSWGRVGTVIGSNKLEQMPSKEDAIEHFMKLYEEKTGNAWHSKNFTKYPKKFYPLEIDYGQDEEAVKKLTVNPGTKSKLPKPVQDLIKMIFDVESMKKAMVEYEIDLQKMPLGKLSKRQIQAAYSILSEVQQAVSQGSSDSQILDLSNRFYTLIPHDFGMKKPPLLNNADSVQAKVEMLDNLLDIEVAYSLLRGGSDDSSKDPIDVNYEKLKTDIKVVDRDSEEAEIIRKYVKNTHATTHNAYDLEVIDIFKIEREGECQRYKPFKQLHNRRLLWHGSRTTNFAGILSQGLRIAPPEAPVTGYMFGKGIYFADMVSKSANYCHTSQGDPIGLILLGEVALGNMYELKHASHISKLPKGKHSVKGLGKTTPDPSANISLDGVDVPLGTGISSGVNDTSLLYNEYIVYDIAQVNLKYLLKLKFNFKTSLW
Procedure: Lysates were prepared and PAR/MARylation was analyzed by Western blot with an ADP-ribose (ADPr) binding reagent. Blot was also probed with antibodies for GFP and actin. The band of interest represents auto-PARylated GFP-PARP1. […] Lysates were prepared and PAR/MARylation was analyzed by Western blot with an ADP-ribose (ADPr) binding reagent. Blot was also probed with antibodies for GFP and actin.
Lysates were prepared and PAR/MARylation was analyzed by Western blot with an ADP-ribose (ADPr) binding reagent. Blot was also probed with antibodies for GFP and actin. The band of interest represents auto-PARylated GFP-PARP1.

SMILES: Cc1ccc2c(=O)[nH]c(CSc3nnc(N)[nH]3)nc2c1C [ITK3, 2-(((5-amino-4H-1,2,4-triazol-3-yl)thio)methyl)-7,8-dimethylquinazolin-4(3H)-one]
- IC50 [1]: > 30 µM
- IC50 [2]: 27.9 ± 3.9 µM
- IC50 [3]: > 10 µM
- IC50 [4]: 6.73 ± 1.8 µM
- IC50 [5]: 13.6 ± 1.4 µM
- IC50 [6]: > 30 µM
- IC50 [7]: > 30 µM
- IC50 [8]: > 30 µM

SMILES: C[C@]1(c2nc3c(C(N)=O)cccc3[nH]2)CCCN1 [veliparib, reference compound]
- Inhibition of H2O2-mediated PARP1 PARylation (PARP½ activity) in cells [9]: completely inhibits

SMILES: CNCc1ccc(-c2[nH]c3cc(F)cc4c3c2CCNC4=O)cc1 [Rucaparib, reference compound]
- IC50 [5]: 3.4 ± 0.5 µM

SMILES: C#Cc1ccc2c(=O)[nH]c(CSc3ccc(C(=O)O)cc3)nc2c1C [ITK5, 4-(((7-ethynyl-8-methyl-4-oxo-3,4-dihydroquinazolin-2-yl)methyl)thio)benzoic acid]
- IC50 [1]: > 30 µM
- IC50 [2]: 5.4 ± 0.17 µM
- IC50 [3]: > 10 µM
- IC50 [4]: 10.8 ± 0.75 µM
- IC50 [5]: 1.62 ± 0.33 µM
- IC50 [6]: > 30 µM
- IC50 [7]: 4.03 ± 0.77 µM
- IC50 [8]: > 30 µM

SMILES: Cc1ccc2c(=O)[nH]c(CSc3ccc(C(=O)O)cc3)nc2c1C [ITK4, 4-(((7,8-dimethyl-4-oxo-3,4-dihydroquinazolin-2-yl)methyl)thio)benzoic acid]
- IC50 [1]: > 30 µM
- IC50 [2]: 9.29 ± 0.2 µM
- IC50 [3]: > 10 µM
- IC50 [4]: 8.71 ± 0.8 µM
- IC50 [5]: 5.5 ± 0.8 µM
- IC50 [6]: 8.46 ± 1.4 µM
- IC50 [7]: 6.85 ± 0.99 µM
- IC50 [8]: > 30 µM

SMILES: Cc1ccc2c(=O)[nH]c(CSc3ncnc4nc[nH]c34)nc2c1C [ITK2, 2-(((7H-purin-6-yl)thio)methyl)-7,8-dimethylquinazolin-4(3H)-one]
- IC50 [1]: > 30 µM
- IC50 [2]: 32.8 ± 3.6 µM
- IC50 [3]: > 10 µM
- IC50 [4]: 7.87 ± 0.2 µM
- IC50 [5]: 4.52 ± 1.4 µM
- IC50 [6]: > 30 µM
- IC50 [7]: > 30 µM
- IC50 [8]: > 30 µM

SMILES: Cc1ccc2c(=O)[nH]c(CSc3ncccn3)nc2c1C [ITK1, 7,8-dimethyl-2-((pyrimidin-2-ylthio)methyl)quinazolin-4(3H)-one]
- IC50 [1]: > 30 µM
- IC50 [2]: 19.7 ± 0.95 µM
- IC50 [3]: > 10 µM
- IC50 [4]: 8.55 ± 0.8 µM
- IC50 [5]: 0.55 ± 0.11 µM
- IC50 [6]: 17.4 ± 3.3 µM
- IC50 [7]: > 30 µM
- IC50 [8]: > 30 µM
